Test results as given in ChEMBL document CHEMBL1165847, “Urotensin-II receptor modulators as potential drugs” (J Med Chem, 2010).
Calls of active or inactive are those of the source. No cut-off for these calls is given here. Where a SMILES comes first, the peptide text is derived from it. Bridges are numbered along the chain shown (N, C = ends). [ ]: non-standard residue; d: D form. 1Nal = N[C@@H](Cc1cccc2ccccc12)C(=O)O; 2Nal = N[C@@H](Cc1ccc2ccccc2c1)C(=O)O

Columns and labels:
Urotensin-2 receptor [1] = molecular target: T1, Urotensin-2 receptor (Rattus norvegicus, UniProt P49684); assay: Agonist activity at rat urotensin 2 receptor expressed in CHO cells assessed as calcium mobilization by FLIPR; format: functional, cell-based
T1 sequence (P49684 whole entry): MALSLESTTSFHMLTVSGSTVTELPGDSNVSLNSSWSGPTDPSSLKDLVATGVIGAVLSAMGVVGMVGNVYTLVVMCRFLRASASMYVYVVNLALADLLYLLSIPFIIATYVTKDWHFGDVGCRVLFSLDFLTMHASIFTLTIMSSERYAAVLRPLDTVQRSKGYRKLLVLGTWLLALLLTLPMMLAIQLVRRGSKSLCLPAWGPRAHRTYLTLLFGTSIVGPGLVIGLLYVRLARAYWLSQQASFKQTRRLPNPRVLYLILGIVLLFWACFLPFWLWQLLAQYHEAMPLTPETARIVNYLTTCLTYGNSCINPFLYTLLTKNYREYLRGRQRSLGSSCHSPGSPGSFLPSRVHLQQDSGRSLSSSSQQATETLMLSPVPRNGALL

Urotensin-2 receptor [2] = molecular target: T1, Urotensin-2 receptor; assay: Displacement of [125I]U2 from rat urotensin 2 receptor expressed in CHO cells; format: cell-based
[3] = molecular target: T2, Urotensin-2 receptor (Rattus norvegicus) (UniProt P49684); assay: Antagonist activity at rat urotensin 2 receptor expressed in CHO cells assessed as calcium mobilization at 300 nM by FLIPR; format: functional, cell-based
T2 sequence (whole entry): T1 sequence (P49684 whole entry)

[4] = molecular target: T2, Urotensin-2 receptor (Rattus norvegicus); assay: Agonist activity at rat urotensin 2 receptor expressed in CHO cells assessed as calcium mobilization at 1000 nM by FLIPR; format: functional, cell-based
Aorta = assay: Vasoconstriction activity in spontaneously […] rat thoracic aorta at 30 nM; format: functional
[5] = molecular target: T2, Urotensin-2 receptor (Rattus norvegicus); assay: Antagonist activity at rat urotensin 2 receptor expressed in CHO cells assessed as calcium mobilization at 10000 nM by FLIPR; format: functional, cell-based

| Compound | EC50 (Urotensin-2 receptor [1]) | Ki (Urotensin-2 receptor [2]) | other results |
| --- | --- | --- | --- |
| CC(C)[C@H](NC(=O)[C@@H]1CSSC[C@H](NC(=O)[C@H](CC(=O)O)NC(=O)[C@H](C)N)C(=O)N[C@@H](Cc2ccccc2)C(=O)N[C@@H](Cc2c[nH]c3ccccc23)C(=O)N[C@@H](CCCCN)C(=O)N[C@@H](Cc2ccc(O)cc2)C(=O)N1)C(=O)O (H-ADCFWKYCV-OH; disulfide 3-8) | 0.16 nM |  |  |
| C[C@H](N)C(=O)N[C@@H](CC(=O)O)C(=O)N[C@H]1CSSC[C@@H](C(=O)N[C@@H](C)C(=O)O)NC(=O)[C@H](Cc2ccc(O)cc2)NC(=O)[C@H](CCCCN)NC(=O)[C@H](Cc2c[nH]c3ccccc23)NC(=O)[C@H](Cc2ccccc2)NC1=O (H-ADCFWKYCA-OH; disulfide 3-8) | 0.4 nM |  |  |
| CC(C)[C@H](NC(=O)[C@@H]1CSSC[C@H](NC(=O)[C@H](CC(=O)O)NC(=O)[C@H](C)NC(=O)[C@@H](NC(=O)CN)[C@@H](C)O)C(=O)N[C@@H](Cc2ccccc2)C(=O)N[C@@H](Cc2c[nH]c3ccccc23)C(=O)N[C@@H](CCCCN)C(=O)N[C@@H](Cc2ccc(O)cc2)C(=O)N1)C(=O)O (H-GTADCFWKYCV-OH; disulfide 5-10) | 0.29 nM |  |  |
| CC(C)[C@H](NC(=O)[C@@H]1CSSC[C@H](N)C(=O)N[C@@H](Cc2ccccc2)C(=O)N[C@@H](Cc2c[nH]c3ccccc23)C(=O)N[C@@H](CCCCN)C(=O)N[C@@H](Cc2ccc(O)cc2)C(=O)N1)C(=O)O (H-CFWKYCV-OH; disulfide 1-6) | 0.76 nM |  |  |
| CC(=O)N[C@H]1CSSC[C@@H](C(N)=O)NC(=O)[C@H](Cc2ccc(O)cc2)NC(=O)[C@@H](CCCCN)NC(=O)[C@H](Cc2c[nH]c3ccccc23)NC(=O)[C@H](Cc2ccccc2)NC1=O |  |  | Ki (Urotensin-2 receptor [2]; cho): < 10000 nM; Activity [3]: inactive |
| CC(=O)N[C@H]1CSSC[C@@H](C(N)=O)NC(=O)[C@H](Cc2ccc(O)cc2)NC(=O)[C@H](CCCCN)NC(=O)[C@H](Cc2c[nH]c3ccccc23)NC(=O)[C@H](Cc2ccccc2)NC1=O | 1.6 nM | 15 nM |  |
| CC(C)[C@H](NC(=O)[C@@H]1CSSC[C@H](NC(=O)[C@H](C)NC(=O)[C@H](C)N)C(=O)N[C@@H](Cc2ccccc2)C(=O)N[C@@H](Cc2c[nH]c3ccccc23)C(=O)N[C@@H](CCCCN)C(=O)N[C@@H](Cc2ccc(O)cc2)C(=O)N1)C(=O)O (H-AACFWKYCV-OH; disulfide 3-8) | 0.6 nM |  |  |
| CC(C)[C@H](NC(=O)[C@@H]1CSSC[C@H](NC(=O)[C@H](CC(=O)O)NC(=O)[C@H](C)N)C(=O)N[C@@H](Cc2ccccc2)C(=O)N[C@@H](Cc2c[nH]c3ccccc23)C(=O)N[C@@H](C)C(=O)N[C@@H](Cc2ccc(O)cc2)C(=O)N1)C(=O)O (H-ADCFWAYCV-OH; disulfide 3-8) | > 1000 nM |  |  |
| CC(=O)N[C@@H](Cc1c[nH]c2ccccc12)C(=O)N[C@@H](CCCCN)C(=O)N[C@@H](Cc1ccc(O)cc1)C(N)=O (Ac-Trp-Lys-Tyr-NH2) | < 500 nM |  | Ki (Urotensin-2 receptor [2]; cho): < 10000 nM |
| Ac-SFWKYS-NH2 | < 500 nM |  | Activity [4]: 50%; Ki (Urotensin-2 receptor [2]; cho): < 10000 nM; Activity [3]: inactive |
| CC(C)[C@H](NC(=O)[C@@H]1CSSC[C@H](NC(=O)[C@H](CC(=O)O)NC(=O)[C@H](C)NC(=O)[C@@H](NC(=O)CNC(=O)[C@H](C)N)[C@@H](C)O)C(=O)N[C@@H](Cc2ccccc2)C(=O)N[C@@H](Cc2c[nH]c3ccccc23)C(=O)N[C@@H](CCCCN)C(=O)N[C@@H](Cc2ccc(O)cc2)C(=O)N1)C(=O)O (H-AGTADCFWKYCV-OH; disulfide 6-11) | 0.17 nM | 0.19 nM | Activity (Aorta): 91% |
| CC(=O)N[C@H]1CSSC[C@@H](C(N)=O)NC(=O)[C@H](Cc2ccc(O)cc2)NC(=O)[C@H](CCCCN)NC(=O)[C@H](Cc2c[nH]c3ccccc23)NC(=O)[C@@H](Cc2ccccc2)NC1=O |  |  | Ki (Urotensin-2 receptor [2]; cho): < 10000 nM; Activity [3]: inactive |
| CC(=O)N[C@H]1CSSC[C@@H](C(N)=O)NC(=O)[C@H](Cc2ccc(O)cc2)NC(=O)[C@H](CCCCN)NC(=O)[C@@H](Cc2c[nH]c3ccccc23)NC(=O)[C@H](Cc2ccccc2)NC1=O | 26 nM | 610 nM |  |
| CC(C)[C@H](NC(=O)[C@@H]1CSSC[C@H](NC(=O)[C@@H](N)CC(=O)O)C(=O)N[C@@H](Cc2ccccc2)C(=O)N[C@@H](Cc2c[nH]c3ccccc23)C(=O)N[C@@H](CCCCN)C(=O)N[C@@H](Cc2ccc(O)cc2)C(=O)N1)C(=O)O (H-DCFWKYCV-OH; disulfide 2-7) | 0.1 nM |  |  |
| CC(=O)N[C@H]1CSSC[C@@H](C(N)=O)NC(=O)[C@H](Cc2cccc3ccccc23)NC(=O)[C@H](CCCCN)NC(=O)[C@H](Cc2c[nH]c3ccccc23)NC(=O)[C@H](Cc2ccccc2)NC1=O (Ac-CFWK[1Nal]C-NH2; disulfide 1-6) | 1.5 nM | 4.1 nM |  |
| NCCCC[C@@H]1NC(=O)[C@H](Cc2c[nH]c3ccccc23)NC(=O)[C@H](Cc2ccccc2)NC(=O)[C@@H](N)CSSC[C@@H](C(=O)O)NC(=O)[C@H](Cc2ccc(O)cc2)NC1=O (H-CFWKYC-OH; disulfide 1-6) | 1.6 nM |  |  |
| CC(=O)N[C@H]1CSSC[C@@H](C(N)=O)NC(=O)[C@H](Cc2ccc3ccccc3c2)NC(=O)[C@H](CCCCN)NC(=O)[C@H](Cc2c[nH]c3ccccc23)NC(=O)[C@H](Cc2ccccc2)NC1=O (Ac-CFWK[2Nal]C-NH2; disulfide 1-6) |  |  | Activity (Aorta): 43% |
| CC(C)[C@H](NC(=O)[C@@H]1CSSC[C@H](NC(=O)[C@H](CC(=O)O)NC(=O)[C@H](C)NC(=O)[C@@H](NC(=O)CNC(=O)[C@H](C)N)[C@@H](C)O)C(=O)N[C@@H](Cc2ccccc2)C(=O)N[C@@H](Cc2c[nH]c3ccccc23)C(=O)N[C@@H](CCCCN)C(=O)N[C@@H](Cc2ccc3ccccc3c2)C(=O)N1)C(=O)O (H-AGTADCFWK[2Nal]CV-OH; disulfide 6-11) | 0.34 nM | 0.02 nM |  |
| CC(C)[C@H](NC(=O)[C@@H]1CSSC[C@H](NC(=O)[C@H](CC(=O)O)NC(=O)[C@H](C)N)C(=O)N[C@@H](C)C(=O)N[C@@H](Cc2c[nH]c3ccccc23)C(=O)N[C@@H](CCCCN)C(=O)N[C@@H](Cc2ccc(O)cc2)C(=O)N1)C(=O)O (H-ADCAWKYCV-OH; disulfide 3-8) | 6.5 nM |  |  |
| CC(=O)N[C@H]1CSSC[C@@H](C(N)=O)NC(=O)[C@H](Cc2ccccc2)NC(=O)[C@H](CCCCN)NC(=O)[C@H](Cc2c[nH]c3ccccc23)NC(=O)[C@H](Cc2ccccc2)NC1=O (Ac-CFWKFC-NH2; disulfide 1-6) | 2.1 nM | 17 nM | Activity (Aorta): 11% |
| CC(=O)N[C@H]1CSSC[C@@H](C(N)=O)NC(=O)[C@@H](Cc2ccc(O)cc2)NC(=O)[C@H](CCCCN)NC(=O)[C@H](Cc2c[nH]c3ccccc23)NC(=O)[C@H](Cc2ccccc2)NC1=O | 37 nM | 1100 nM |  |
| CC(C)[C@H](NC(=O)[C@@H]1CSSC[C@H](NC(=O)[C@H](CC(=O)O)NC(=O)[C@H](C)NC(=O)[C@@H](N)[C@@H](C)O)C(=O)N[C@@H](Cc2ccccc2)C(=O)N[C@@H](Cc2c[nH]c3ccccc23)C(=O)N[C@@H](CCCCN)C(=O)N[C@@H](Cc2ccc(O)cc2)C(=O)N1)C(=O)O (H-TADCFWKYCV-OH; disulfide 4-9) | 0.11 nM |  |  |
| CC(=O)N[C@H]1CSSC[C@@H](C(N)=O)NC(=O)[C@H](Cc2ccc(O)cc2)NC(=O)[C@H](CCCCN)NC(=O)[C@H](Cc2ccc3ccccc3c2)NC(=O)[C@H](Cc2ccccc2)NC1=O (Ac-CF[2Nal]KYC-NH2; disulfide 1-6) | 31 nM | 200 nM |  |
| CC(=O)N[C@H]1CSSC[C@@H](C(N)=O)NC(=O)[C@H](C)NC(=O)[C@H](CCCCN)NC(=O)[C@H](Cc2c[nH]c3ccccc23)NC(=O)[C@H](Cc2ccccc2)NC1=O (Ac-CFWKAC-NH2; disulfide 1-6) |  | > 10000 nM | Activity [4]: 50%; Activity (Aorta): 0% |
| CC(C)[C@H](NC(=O)[C@@H]1CSSC[C@H](NC(=O)[C@H](CC(=O)O)NC(=O)[C@H](C)N)C(=O)N[C@@H](Cc2ccccc2)C(=O)N[C@@H](C)C(=O)N[C@@H](CCCCN)C(=O)N[C@@H](Cc2ccc(O)cc2)C(=O)N1)C(=O)O (H-ADCFAKYCV-OH; disulfide 3-8) | > 1000 nM |  |  |
| CC(C)[C@H](NC(=O)[C@@H]1CSSC[C@H](NC(=O)[C@H](CC(N)=O)NC(=O)[C@H](C)N)C(=O)N[C@@H](Cc2ccccc2)C(=O)N[C@@H](C)C(=O)N[C@@H](CCCCN)C(=O)N[C@@H](Cc2ccc(O)cc2)C(=O)N1)C(=O)O (H-ANCFAKYCV-OH; disulfide 3-8) |  |  | Activity [5]: inactive |
| CC(C)[C@H](NC(=O)[C@@H]1CSSC[C@H](NC(=O)[C@H](CC(N)=O)NC(=O)[C@H](C)N)C(=O)N[C@@H](Cc2ccccc2)C(=O)N[C@@H](Cc2c[nH]c3ccccc23)C(=O)N[C@@H](C)C(=O)N[C@@H](Cc2ccc(O)cc2)C(=O)N1)C(=O)O (H-ANCFWAYCV-OH; disulfide 3-8) |  |  | Activity [5]: inactive |
